Test results reported in US20120319032A1, “Biodegradable, Frost Proof Heat-Transfer Fluid, Use Thereof In Near-Surface Geothermal Installations, And A Concentrate For Preparing Same” (priority 2010, published 2012).
Like-named read-outs stand apart in the source and are kept apart here.

Legend:
[1] = 301D; 28 d; Research report 200 24 233 UBA-FB 000298; cited from earlier work
[2] = 302B; 28 d; Research report 200 24 233 UBA-FB 000298; cited from earlier work
[3] = OECD 301B, manufacturer safety data sheet, cited from earlier work
[4] = OECD 301A, manufacturer safety data sheet, cited from earlier work
[5] = shown in studies (Geothermics 36 (2007) 348 - 361); cited from earlier work
[6] = Biodegradability, test method OECD 301 B; conditions: in-house measurement
Experimental: The biodegradability of the inventive composition and constituents thereof is determined according to the OECD Guidelines for Testing of Chemicals 301 and 311.
The corrosion inhibitor or, if more than one corrosion inhibitor is used, all corrosion inhibitors used have good biodegradability (are “readily degradable”) according to the respectively applicable test method OECD 301 A (for water-soluble corrosion inhibitors) or OECD 301 B (for sparingly water-soluble corrosion inhibitors), each in the version dated Jul. 17, 1992. Good biodegradability is defined in point 10 of OECD 301.

c1ccc2[nH]nnc2c1 [Benzotriazole]
Degradability [1]: 0% (28 d)
Degradability [2]: 12% (28 d)

CC(C)CCCCCC(=O)NCCCCCC(=O)O [Inhibitor X]
Degradability ([3]; 15 d): >90% (15 d)
Assessment of degradability [3]: good

CC(O)CO (centres unmarked) [1,2-propylene glycol]
Degradability ([4]; duration not given): >70%
Assessment of degradability [4]: good
Biodegradability [5]: good

OCCO [ethylene glycol]
Biodegradability [5]: good

CC(C)CCCCCC(=O)O [Inhibitor A, isononanoic acid]
Degradability ([3]; 25 d): approx. 63%
Assessment of degradability [3]: moderately

O=C(O)CCCCCCCCC(=O)O [Inhibitor C, sebacic acid]
Degradability ([6]; 25 d): >80% (25 d)
Assessment of degradability [6]: good

CCCCC(CC)C(=O)O (centres unmarked) [Inhibitor B, 2-ethylhexanoic acid]
Degradability ([3]; 25 d): approx. 90%
Assessment of degradability [3]: good
